Source: publication PMC5510868 (PLoS ONE, 2017)
“Also recorded” adds a separate entry of the source. Like-named read-outs stand apart in the source and are kept apart here.

Assays:
[1] = in vivo
Experimental: (§1) Quantification of the drug concentrations was performed with liquid chromatography-mass spectrometry/tandem mass spectrometry (LC-MS/LC-MS/MS). […] In brief, the drugs were extracted from serum by liquid-liquid extraction, using a mixture of hexane, acetonitrile and/or butanol, or dichloromethane and isopropanol. Thereafter, the analytes were separated on C18 columns using methanol, acetonitrile, formic acid or ammonium acetate as mobile phases, and quantified on LC-MS or LC-MS-MS systems. Calibration curves were constructed for each assay with drug-free human serum by the addition of varying concentrations of the antidepressants and their respective metabolites.
(§2) Serum concentrations in ng/mL were divided by the daily dose used by the person at the time of sampling, providing a serum concentration/dose ratio, and then multiplied by the defined daily dose (DDD), which is the assumed average maintenance dose per day for that drug used for its main indication in adults [28]. […] All concentrations presented and discussed in this article, including tables and figures, are dose-adjusted to the DDD of the drug.
(§3) For drugs where both the parent drug and the metabolite were measured, parent drug/metabolite concentration ratios during pregnancy were compared to baseline values as described above; ratios were loge-transformed and fitted into a linear mixed model, estimating the baseline ratios and the effect of each gestational week.
(§4) All model parameters, including variance components, were estimated by the method of maximum likelihood using STATA 13 command “mixed”. […] P values less than 0.05 were considered statistically significant.

[2] = Dose-adjusted serum antidepressant concentrations across pregnancy compared to the women's own baseline (routine TDM, LC-MS, linear mixed model); format: in vivo, human; conditions: for Change of serum concentration in pregnancy compared to baseline (in words): dose-adjusted, fluoxetine and venlafaxine = active moiety
From the text: After obtaining approval from the Regional Committee for Medical and Health Research Ethics in Mid Norway, the Norwegian Centre for Research Data (Data Protection Official), the Norwegian Directorate of Health and the Medical Birth Registry of Norway (MBRN) publication council, serum concentration data for antidepressants were collected from the two largest TDM services for psychotropic drugs in Norway (i.e. Department of Clinical Pharmacology at St. Olav University Hospital in Trondheim, and Center for Psychopharmacology at Diakonhjemmet Hospital in Oslo). […] The antidepressant TDM data contain serum concentration measurements taken in a naturalistic setting from psychiatry inpatients and outpatients. In addition to measured serum concentrations, the databases contain information obtained from the requisition forms, such as the prescribed antidepressant dose, time of last drug intake, time of blood sampling, and types and doses of concomitant drugs.
First, a combined laboratory TDM file was created, containing all serum concentration measurements (for any drug) in the period October 1999 –December 2011 for all women of reproductive age (i.e. born 1950–2000). […] Using the unique 11-digit identification number assigned to all individuals living in Norway, the MBRN could identify all pregnant women in the TDM data set. […] For the current study we retrieved the following information: the personal identification number, the drug analysed, the measured drug serum concentration, time of last dose, time of sampling, drug dose, concomitant drug use, other clinical information, name of the responsible physician, gestational week at the time of sampling (calculated from the sampling date and the pregnancy onset date as determined by obstetric ultrasound if available, or by last menstruation), and date of delivery.
If the requisition form lacked information on drug dose the authors contacted the responsible physician, who attempted to obtain this information from the medical record. If we were unable to retrieve this information, the analysis was excluded.
Having identified the pregnant women and their individual pregnancy periods in the extracted data file, we used the original TDM databases to retrieve serum concentration measurements before and after pregnancy from the same women, to serve as baseline observations for each of the included subjects. […] These analyses were not used in the statistical model, only for visual comparison. The remaining 420 analyses were used for the statistical comparisons.
Since multiple measurements were available from the same patient a linear mixed model was used. […] Baseline measurements were set to gestational week 0 in the model. Then, the effect of gestational week on concentration compared to baseline could be estimated for each drug.
Data are presented as means with 95% confidence intervals.

[3] = cited from earlier work
[4] = Previous studies of antidepressant plasma/serum concentrations in pregnancy (literature quoted in the Discussion); format: in vivo, human; conditions: 0.3 ng/mL per gestational week applied to this study's data
[5] = Serum metabolite concentrations and parent compound/metabolite ratios at baseline and in the third trimester (TDM, linear mixed model)
Experimental: as §1, §2, §3, §4

CNCCCC1(c2ccc(F)cc2)OCc2cc(C#N)ccc21 (stereo not drawn) [Desmethylescitalopram]
Loge serum concentration, Change per gestational week estimate (parent compound or metabolite) [1]: -0.004

Fc1ccc([C@@H]2CCNC[C@H]2COc2ccc3c(c2)OCO3)cc1 [Paroxetine]
Serum concentration in pregnancy as share of pre-pregnancy levels ([2]; drop to about this share of pre-pregnancy levels): about 50% | Serum concentration in third trimester lower than baseline (reduction) ([2]; mid third trimester (gestational week 34) vs baseline, value given as size of the reduction): 51% | Concentrations in third trimester compared to postpartum (in words) ([3]; 12 pregnancies, no numbers provided, ref Brogtrop et al. [17]): lower concentrations in the third trimester compared to postpartum | Increase of maternal plasma concentration per gestational week ([3]; intermediate and poor CYP2D6 metabolizers): 0.6 ng/mL per gestational week | Decline of maternal plasma concentration per gestational week ([3]; ultrarapid or extensive CYP2D6 metabolizers, 74 pregnancies, ref Ververs et al. [20]): 0.3 ng/mL per gestational week | Reduction in week 34 to which the cited decline per week translates for the present data [4]: 30%

COc1ccc(C(CN(C)C)C2(O)CCCCC2)cc1 (stereo not drawn) [Venlafaxine]
Change of serum concentration in pregnancy compared to baseline (in words) [2]: remain largely unchanged | Change of serum concentration in pregnancy compared to baseline (in words) ([2]; listed as venlafaxine): did not change significantly; also recorded: not statistically significant | Change of parent compound or metabolite serum concentration in pregnancy (in words) ([5]; analyses with metabolite data (Table 3)): trend towards a statistically significant decline | Change from baseline conc., Estimate (parent compound or metabolite) ([5]; baseline to third trimester (gestational week 34)): -40% | Baseline conc., Estimate (parent compound or metabolite) ([5]; day 0 (non-pregnant), only analyses with metabolite data, dose-adjusted to DDD): 35.8 ng/mL | Loge PMR, Intercept estimate ([5]; loge-transformed parent compound/metabolite ratio, baseline): -0.927 | Loge PMR, Change per gestational week estimate ([5]; loge-transformed parent compound/metabolite ratio, per week of pregnancy): -0.011 | Loge serum concentration, Intercept estimate (parent compound or metabolite) ([5]; loge-transformed, baseline (day 0 of pregnancy), only analyses with metabolite data): 3.577 | Loge serum concentration, Change per gestational week estimate (parent compound or metabolite) ([5]; loge-transformed, per week of pregnancy): -0.015 | Reduction in plasma levels in pregnancy compared to baseline ([3]; case report, ref Klier et al. [16]): more than 50% | Reduction in levels in pregnancy ([3]; prospective study of seven pregnancies, ref ter Horst et al. [24]): 13%
